Among the test systems are CAKI-1 renal; COLO 205 colon; DLD-1 colon; DMS 114 small cell lung; HL-60(TB) leukemia; HOP-92 NSCLC; IGROV1 ovarian; K-562 leukemia; MALME-3M melanoma; NCI-H460 lung; OVCAR-3 ovarian; OVCAR-8 ovarian; SF-295 CNS; SF-539 CNS; SK-MEL-28 melanoma; SK-OV-3 ovarian; SNB-75 CNS; UACC-257 melanoma; HCC-2998 colon; OVCAR-5 ovarian.
Experiment in all cases: inhibition of tumour cell growth, NCI panel, 48 h

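Values below derive from 48-hour exposures of cells grown in 96-well plates, with endpoints linearly interpolated between the two concentrations bracketing the appropriate inhibition level. TGI: total growth inhibition.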 Where only a bound is given, the exact number is not on record here.

Turning to `CCOC(=O)NC(=O)c1cn(CCSCCOC(=O)NCCCCCCNC(=O)OCCSCCn2cc(C(=O)NC(=O)OCC)c(=O)[nH]c2=O)c(=O)[nH]c1=O`, the TGI with CAKI-1 renal, with COLO 205 colon, with DLD-1 colon, in the experiment with DMS 114 small cell lung, in the experiment on HL-60(TB) leukemia and in the experiment on HOP-92 NSCLC was > 100 µM each time. In addition, the TGI in the experiment on IGROV1 ovarian, with K-562 leukemia, with MALME-3M melanoma, with NCI-H460 lung, in the experiment on OVCAR-3 ovarian and in the experiment with OVCAR-8 ovarian was > 100 µM throughout. The TGI in the experiment on SF-295 CNS, in the experiment with SF-539 CNS, with SK-MEL-28 melanoma, in the experiment with SK-OV-3 ovarian, in the experiment on SNB-75 CNS and in the experiment with UACC-257 melanoma was > 100 µM each time.

Turning to `O=C(O)CNS(=O)(=O)c1ccc(NC(=O)Nc2ccccc2)cc1`, the TGI was > 100 µM with CAKI-1 renal; > 100 µM in the experiment with COLO 205 colon; > 100 µM in the experiment on DLD-1 colon; > 100 µM in the experiment with DMS 114 small cell lung; > 100 µM in the experiment with HCC-2998 colon; > 31.6 µM with HL-60(TB) leukemia. The TGI with HOP-92 NSCLC is > 100 µM; in the experiment with IGROV1 ovarian, > 54.4 µM; in the experiment on K-562 leukemia, > 100 µM; with MALME-3M melanoma it was > 100 µM; with NCI-H460 lung, > 100 µM; with OVCAR-3 ovarian, > 100 µM. Moreover, the TGI in the experiment on OVCAR-5 ovarian, in the experiment with OVCAR-8 ovarian, with SF-295 CNS, in the experiment with SF-539 CNS, in the experiment with SK-MEL-28 melanoma and in the experiment with SK-OV-3 ovarian was > 100 µM in each case. The TGI in the experiment on SNB-75 CNS and in the experiment with UACC-257 melanoma was > 100 µM each time.

For the compound `Cc1cc(N=Nc2ccc(N=Nc3c(O)c(S(=O)(=O)O)cc4cc(S(=O)(=O)O)ccc34)cc2C)ccc1N=Nc1ccc2cc(S(=O)(=O)O)cc(S(=O)(=O)O)c2c1`, the TGI in the experiment on COLO 205 colon, with DLD-1 colon, in the experiment on DMS 114 small cell lung, in the experiment with HCC-2998 colon, in the experiment with HL-60(TB) leukemia and in the experiment on HOP-92 NSCLC was > 100 µM in each case. In addition, the TGI in the experiment on IGROV1 ovarian, with K-562 leukemia, in the experiment with MALME-3M melanoma, with NCI-H460 lung, in the experiment on OVCAR-3 ovarian and in the experiment with OVCAR-5 ovarian was > 100 µM throughout. Besides, the TGI with OVCAR-8 ovarian is > 31.6 µM; with SF-295 CNS, > 100 µM; in the experiment with SF-539 CNS, > 100 µM; in the experiment on SK-MEL-28 melanoma, > 100 µM; with SK-OV-3 ovarian, > 100 µM; in the experiment with SNB-75 CNS it was > 100 µM. Also, the TGI with UACC-257 melanoma is > 100 µM.

On to `CCNCCCCNCC`, for which the TGI in the experiment with CAKI-1 renal is > 3750 µM; with COLO 205 colon, > 3750 µM; in the experiment on DLD-1 colon, > 3750 µM; with DMS 114 small cell lung it was > 3750 µM; in the experiment on HCC-2998 colon, > 3750 µM; in the experiment on HL-60(TB) leukemia, > 1190 µM. Further, the TGI in the experiment with HOP-92 NSCLC was > 3750 µM; in the experiment with IGROV1 ovarian, > 3750 µM; in the experiment on K-562 leukemia, > 3750 µM; with MALME-3M melanoma it was > 3750 µM; in the experiment with NCI-H460 lung, > 1190 µM; in the experiment on OVCAR-3 ovarian, > 3750 µM. Besides, the TGI with OVCAR-5 ovarian, in the experiment with OVCAR-8 ovarian, with SF-295 CNS, in the experiment on SF-539 CNS, with SK-MEL-28 melanoma and in the experiment on SK-OV-3 ovarian was > 3750 µM throughout. Also, the TGI in the experiment with SNB-75 CNS and in the experiment with UACC-257 melanoma was > 3750 µM throughout.

Turning to `COC(=O)NN1C(=O)C(=P(c2ccccc2)(c2ccccc2)c2ccccc2)C(C(=O)OC)=C1C`, the TGI is > 100 µM in the experiment on CAKI-1 renal; > 100 µM in the experiment with COLO 205 colon; > 100 µM in the experiment with DMS 114 small cell lung; > 100 µM with HL-60(TB) leukemia; 79.5 µM in the experiment on HOP-92 NSCLC; > 100 µM in the experiment with IGROV1 ovarian. Also, the TGI with K-562 leukemia, in the experiment with MALME-3M melanoma, with NCI-H460 lung, in the experiment on OVCAR-3 ovarian, in the experiment with OVCAR-8 ovarian and with SF-295 CNS was > 100 µM each time. Further, the TGI in the experiment with SF-539 CNS, in the experiment on SK-MEL-28 melanoma, in the experiment with SK-OV-3 ovarian and in the experiment on SNB-75 CNS was > 100 µM in each case.

For `CC1=C2C(O)C(C(C)C(=O)NC(C)C)CCC2(C)C=CC1=O` (stereo not drawn), the TGI in the experiment on CAKI-1 renal, in the experiment with COLO 205 colon, in the experiment on DLD-1 colon, in the experiment on DMS 114 small cell lung, in the experiment on HCC-2998 colon and in the experiment with HL-60(TB) leukemia was > 100 µM throughout. Further, the TGI with HOP-92 NSCLC, with IGROV1 ovarian, in the experiment on K-562 leukemia, with NCI-H460 lung, in the experiment on OVCAR-3 ovarian and in the experiment with OVCAR-5 ovarian was > 100 µM in each case. Also, the TGI with OVCAR-8 ovarian, in the experiment on SF-295 CNS, with SF-539 CNS, in the experiment with SK-MEL-28 melanoma, in the experiment on SK-OV-3 ovarian and in the experiment on SNB-75 CNS was > 100 µM throughout. Further, in the experiment on UACC-257 melanoma, the TGI was > 100 µM.

With `CC(C)(O)[C@H](CCO)O[Si](c1ccccc1)(c1ccccc1)C(C)(C)C`, the TGI in the experiment on COLO 205 colon amounted to 29.6 µM; in the experiment with DLD-1 colon, 21 µM; in the experiment with HCC-2998 colon, 18.1 µM; with HL-60(TB) leukemia, 20.1 µM; in the experiment with HOP-92 NSCLC it was 23.5 µM; in the experiment with IGROV1 ovarian, 25.3 µM. Also, the TGI in the experiment with K-562 leukemia is 23.7 µM; in the experiment with MALME-3M melanoma, 31.5 µM; in the experiment on NCI-H460 lung, 26.7 µM; with OVCAR-3 ovarian, 23.9 µM; with OVCAR-5 ovarian it was 28.1 µM; with OVCAR-8 ovarian it was 23.8 µM. Moreover, the TGI in the experiment with SF-295 CNS is 18.9 µM; in the experiment on SF-539 CNS, 27.3 µM; in the experiment with SK-MEL-28 melanoma, 29 µM; in the experiment with SK-OV-3 ovarian, 24.5 µM; in the experiment with SNB-75 CNS, 22.9 µM; in the experiment on UACC-257 melanoma, 29.7 µM.

Take `CC1OC(OC2CC(O)(C(=O)CO)Cc3c(O)c4c(c(O)c32)C(=O)c2ccccc2C4=O)CC(N)C1O` (stereo not drawn): the TGI is 0.088 µM in the experiment on CAKI-1 renal; 0.139 µM with COLO 205 colon; 0.0412 µM in the experiment with DMS 114 small cell lung; 0.084 µM in the experiment with HCC-2998 colon; < 0.0173 µM with HL-60(TB) leukemia; 1.04 µM with HOP-92 NSCLC. Moreover, the TGI was 3.52 µM in the experiment with IGROV1 ovarian; 9.2 µM in the experiment with K-562 leukemia; 0.0864 µM in the experiment with MALME-3M melanoma; 0.0366 µM with NCI-H460 lung; 1.32 µM in the experiment with OVCAR-3 ovarian; 0.721 µM in the experiment on OVCAR-5 ovarian. In addition, the TGI in the experiment with OVCAR-8 ovarian is 12.4 µM; with SF-295 CNS, 0.0818 µM; in the experiment with SF-539 CNS, 0.121 µM; with SK-MEL-28 melanoma, 0.368 µM; in the experiment with SK-OV-3 ovarian, 0.142 µM; in the experiment with SNB-75 CNS, 0.107 µM. The compound also had a TGI in the experiment with UACC-257 melanoma of 0.326 µM.

Turning to `Cn1c(=O)c2nc(N3CCCCC3)cnc2n(C)c1=O`, the TGI in the experiment with CAKI-1 renal, with COLO 205 colon, with DLD-1 colon, in the experiment with HCC-2998 colon, with HL-60(TB) leukemia and in the experiment on HOP-92 NSCLC was > 100 µM throughout. Also, the TGI in the experiment with IGROV1 ovarian, in the experiment on K-562 leukemia, in the experiment with MALME-3M melanoma, with NCI-H460 lung, with OVCAR-3 ovarian and with OVCAR-5 ovarian was > 100 µM throughout. The TGI in the experiment on OVCAR-8 ovarian, with SF-295 CNS, with SF-539 CNS, with SK-MEL-28 melanoma, in the experiment on SK-OV-3 ovarian and in the experiment with SNB-75 CNS was > 100 µM in each case. The TGI with UACC-257 melanoma was > 100 µM.

Source of the values: PubChem BioAssay (NCI).
